{
  "source": "paper PMC2765968",
  "about": "“A novel inhibitor of Chlamydophila pneumoniae protein kinase D (PknD) inhibits phosphorylation of CdsD and suppresses bacterial replication” (BMC Microbiology, 2009)",
  "molecular_target": "T1, CdsN (GST-CdsN) (Chlamydia pneumoniae, UniProt A0ABN3YQA5)",
  "T1 construct": "gene yopN; GST tag kept, eluted from glutathione-agarose",
  "T1 sequence (A0ABN3YQA5 1-442)": "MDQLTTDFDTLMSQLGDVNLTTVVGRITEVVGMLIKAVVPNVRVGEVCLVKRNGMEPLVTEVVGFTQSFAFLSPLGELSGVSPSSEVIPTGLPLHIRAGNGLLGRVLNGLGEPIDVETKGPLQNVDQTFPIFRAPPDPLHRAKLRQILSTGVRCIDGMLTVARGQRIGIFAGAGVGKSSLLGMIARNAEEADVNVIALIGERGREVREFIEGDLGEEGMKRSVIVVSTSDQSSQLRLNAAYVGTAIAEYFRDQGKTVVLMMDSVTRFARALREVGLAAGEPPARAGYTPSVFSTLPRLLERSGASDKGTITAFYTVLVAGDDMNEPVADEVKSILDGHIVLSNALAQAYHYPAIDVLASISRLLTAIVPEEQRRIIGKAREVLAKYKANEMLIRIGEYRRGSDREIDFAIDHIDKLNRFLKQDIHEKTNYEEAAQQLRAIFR",
  "experiment": "ATP hydrolysis, malachite green phosphate assay",
  "assay_type": "biochemical",
  "conditions": "[…] ATP, […] Tris-HCl pH […] MgCl2, […] KCl, […] °C, […] min",
  "data": [
    {"smiles": "Nc1ncnc2c1ncn2[C@@H]1O[C@H](COP(=O)(O)OP(=O)(O)OP(=O)(O)O)[C@@H](O)[C@H]1O", "note": "[ATP]", "values": [
      {"measurement": "ATP hydrolysis, malachite green phosphate assay", "value": "ATP hydrolysis by GST-CdsN purified from glutathione-agarose beads was measured using a malachite green assay"}
    ]}
  ]
}
